These results are taken from patent publication US12378231B2, “Small molecules as monoacylglycerol lipase (MAGL) inhibitors, compositions and use thereof” (APOGEE PHARMACEUTICALS, INC., priority 2023, dated 2025).

As a reminder, the IC50 is the midpoint of a concentration-inhibition curve.

One assay concerns the target human recombinant MAGL (Homo sapiens (Human), UniProt Q99685). Briefly: In vitro inhibition of human recombinant MAGL activity (Cayman inhibitor screening kit, 4-nitrophenylacetate hydrolysis). It is filed as biochemical. The text has this: The inhibitory effect of the synthetic chemicals on activity of human recombinant MAGL was studied using commercial inhibitor screening kit (Cayman Chemical). […] The absorbance of the yellow product can be analyzed using the plate reader. […]

A further assay deals with human recombinant FAAH (Homo sapiens (Human), UniProt O00519). Description: In vitro inhibition of human recombinant FAAH activity (Cayman FAAH inhibitor screening kit, AMC arachidonoyl amide hydrolysis). It is filed as biochemical. The text has this:
In brief, FAAH hydrolyzes AMC arachidonoyl amide resulting in the release of the fluorescent product, while the inhibitor will inhibit the FAAH activity and thus reduce the fluorescent signal.

[1] abbreviates: human recombinant MAGL, read-out: Inhibition on MAGL activity (IC50).

Where two headings read alike, the source gives them in different places.

Chain of human recombinant MAGL (Q99685 whole entry): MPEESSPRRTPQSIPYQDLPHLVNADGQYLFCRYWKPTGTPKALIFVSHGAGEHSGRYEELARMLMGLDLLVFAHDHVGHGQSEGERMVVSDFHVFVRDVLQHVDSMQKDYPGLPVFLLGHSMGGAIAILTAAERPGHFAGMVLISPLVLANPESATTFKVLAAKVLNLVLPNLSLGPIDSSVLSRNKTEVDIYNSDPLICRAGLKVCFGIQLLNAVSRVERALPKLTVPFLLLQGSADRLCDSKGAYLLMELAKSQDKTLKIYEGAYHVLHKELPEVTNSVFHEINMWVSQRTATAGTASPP
Chain of human recombinant FAAH (O00519 whole entry): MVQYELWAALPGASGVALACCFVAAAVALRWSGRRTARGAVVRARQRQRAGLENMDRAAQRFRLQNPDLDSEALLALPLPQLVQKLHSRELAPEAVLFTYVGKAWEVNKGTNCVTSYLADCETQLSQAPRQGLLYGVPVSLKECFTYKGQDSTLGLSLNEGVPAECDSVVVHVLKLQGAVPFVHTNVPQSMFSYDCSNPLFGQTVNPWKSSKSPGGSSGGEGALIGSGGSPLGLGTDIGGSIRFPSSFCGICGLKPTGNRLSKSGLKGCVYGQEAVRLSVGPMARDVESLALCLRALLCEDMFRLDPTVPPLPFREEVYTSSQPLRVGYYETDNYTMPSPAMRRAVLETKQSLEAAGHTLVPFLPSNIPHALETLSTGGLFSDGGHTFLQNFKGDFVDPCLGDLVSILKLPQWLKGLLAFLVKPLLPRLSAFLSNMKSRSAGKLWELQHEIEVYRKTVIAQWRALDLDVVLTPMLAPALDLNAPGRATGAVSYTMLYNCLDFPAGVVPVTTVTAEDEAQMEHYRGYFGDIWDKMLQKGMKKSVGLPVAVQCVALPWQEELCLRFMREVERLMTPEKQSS

As to `O=C(OC(C(F)(F)F)C(F)(F)F)N1CCN(C(c2ccc3c(c2)COCO3)c2ccc3c(c2)COCO3)CC1` [Example 3, 1,1,1,3,3,3-hexafluoropropan-2-yl 4-(bis(4H-benzo[d][1,3]dioxin-6-yl)methyl)piperazine-1-carboxylate], the 50% inhibitory concentration (IC50) on human recombinant MAGL (setting [1]) is 1 to 20 nM; on human recombinant FAAH, above 50000 nM.
On to `O=C(Oc1ccc(Oc2ccccc2)cc1)N1CCN(C(c2ccc3c(c2)COCO3)c2ccc3c(c2)COCO3)CC1` [Example 7, 4-phenoxyphenyl 4-(bis(4H-benzo[d][1,3]dioxin-6-yl)methyl)piperazine-1-carboxylate], for which the figures for the concentration for half-maximal inhibition (IC50) on human recombinant MAGL (setting [1]) and at human recombinant FAAH were above 100 nM and above 10000 nM, respectively.
The corresponding values for `O=C(On1nnc2ccc(C(F)(F)F)cc21)N1CCN(C(c2ccc3c(c2)COCO3)c2ccc3c(c2)COCO3)CC1` [Example 22, 6-(trifluoromethyl)-1H-benzo[d][1,2,3]triazol-1-yl 4-(bis(4H-benzo[d][1,3]dioxin-6-yl)methyl)piperazine-1-carboxylate] are above 100 nM and above 50000 nM.
In the case of `N#Cc1ncn(C(=O)N2CCN(C(c3ccc(-n4cccn4)cc3)c3ccc4c(c3)COCO4)CC2)n1` (stereo not drawn) [Example 120, 1-(4-((4-(1H-pyrazol-1-yl)phenyl)(4H-benzo[d][1,3]dioxin-6-yl)methyl)piperazine-1-carbonyl)-1H-1,2,4-triazole-3-carbonitrile], the half-maximal inhibitory concentration (IC50) on human recombinant MAGL (setting [1]) is 1 to 10 nM; on human recombinant FAAH it was above 50000 nM.
As for `O=C(Nc1cccnn1)N1CCC(=Cc2cccc(Oc3ccc(C(F)(F)F)cn3)c2)CC1` [PF-04457845, reference compound], the values for the concentration for half-maximal inhibition (IC50) on human recombinant MAGL (setting [1]) and on human recombinant FAAH were above 10000 nM and 1.9 nM, respectively.
`O=C(N1CCN(C(c2ccc3c(c2)COCO3)c2ccc3c(c2)COCO3)CC1)n1nnc2cc3c(cc21)OCCO3` [Example 46, (4-(bis(4H-benzo[d][1,3]dioxin-6-yl)methyl)piperazin-1-yl)(6,7-dihydro-1H-[1,4]dioxino[2′,3′:4,5]benzo[1,2-d][1,2,3]triazol-1-yl)methanone]: the figures for the IC50 on human recombinant MAGL (setting [1]) and at human recombinant FAAH were 10 to 100 nM and above 10000 nM, respectively.
In the same order, the values of `N#Cc1ccc2c(c1)nnn2C(=O)N1CCN(C(c2ccc(F)cc2)c2ccc(F)cc2)CC1` [Example 121, 1-(4-(bis(4-fluorophenyl)methyl)piperazine-1-carbonyl)-1H-benzo[d][1,2,3]triazole-5-carbonitrile] are 1 to 10 nM and around 100 nM.
`N#Cc1ncn(C(=O)N2CCN(C(c3ccc4c(c3)OCCO4)c3ccc4c(c3)OCCO4)CC2)n1` [Example 92, 1-(4-(bis(2,3-dihydrobenzo[b][1,4]dioxin-6-yl)methyl)piperazine-1-carbonyl)-1H-1,2,4-triazole-3-carbonitrile]: the results for the 50% inhibitory concentration (IC50) at human recombinant MAGL (setting [1]) and at human recombinant FAAH were 1 to 10 nM and around 10000 nM, respectively.
In the same order, the values of `N#Cc1ccc2nnn(C(=O)N3CCC(N(c4ccc(C(F)(F)F)cc4)c4ccc5c(c4)OCO5)CC3)c2c1` [Example 69, 1-(4-(benzo[d][1,3]dioxol-5-yl(4-(trifluoromethyl)phenyl)amino)piperidine-1-carbonyl)-1H-benzo[d][1,2,3]triazole-6-carbonitrile] are 1 to 10 nM and 100 to 1000 nM.
For `COc1ccc(C(c2ccc3c(c2)COCO3)N2CCN(C(=O)n3cnc(C#N)n3)CC2)cn1` (stereo not drawn) [Example 118, 1-(4-((4H-benzo[d][1,3]dioxin-6-yl)(6-methoxypyridin-3-yl)methyl)piperazine-1-carbonyl)-1H-1,2,4-triazole-3-carbonitrile], the IC50 on human recombinant MAGL (setting [1]) is 1 to 10 nM; at human recombinant FAAH, around 10000 nM.
On to `N#Cc1ncn(C(=O)N2CC3(C2)CN(C(c2ccc4c(c2)COCO4)c2ccc4c(c2)COCO4)C3)n1` [Example 80, 1-(6-(bis(4H-benzo[d][1,3]dioxin-6-yl)methyl)-2,6-diazaspiro[3.3]heptane-2-carbonyl)-1H-1,2,4-triazole-3-carbonitrile], for which the concentration for half-maximal inhibition (IC50) lay within 10 to 100 nM at human recombinant MAGL (setting [1]) and 10000 to 50000 nM at human recombinant FAAH.
Consider `N#Cc1ccc(C(c2ccc(C#N)cc2)N2CCN(C(=O)n3nnc4cc(C#N)ccc43)CC2)cc1` [Example 101, 4,4′-((4-(5-cyano-1H-benzo[d][1,2,3]triazole-1-carbonyl)piperazin-1-yl)methylene)dibenzonitrile], for which the IC50 at human recombinant MAGL (setting [1]) is 1 to 10 nM; on human recombinant FAAH, above 50000 nM.
As for `Cn1ncc2cc(C(=C3CCN(C(=O)n4cnc(C#N)n4)CC3)c3ccc4c(cnn4C)c3)ccc21` [Example 123, 1-(4-(bis(1-methyl-1H-indazol-5-yl)methylene)piperidine-1-carbonyl)-1H-1,2,4-triazole-3-carbonitrile], the concentration for half-maximal inhibition (IC50) is 1 to 10 nM on human recombinant MAGL (setting [1]) and around 10000 nM at human recombinant FAAH.
In the case of `COc1ccc(C(c2ccc(OC)c(OC)c2)N2CCN(C(=O)n3nnc4cc(C#N)ccc43)CC2)cc1OC` [Example 94, 1-(4-(bis(3,4-dimethoxyphenyl)methyl)piperazine-1-carbonyl)-1H-benzo[d][1,2,3]triazole-5-carbonitrile], the values for the half-maximal inhibitory concentration (IC50) at human recombinant MAGL (setting [1]) and at human recombinant FAAH were 10 to 100 nM and above 50000 nM, respectively.
`N#Cc1ccc2nnn(C(=O)N3CCC(N(c4ccc5c(c4)OCO5)c4ccc5c(c4)OCO5)CC3)c2c1` [Example 67, 1-(4-(bis(benzo[d][1,3]dioxol-5-yl)amino)piperidine-1-carbonyl)-1H-benzo[d][1,2,3]triazole-6-carbonitrile]: the figures for the IC50 at human recombinant MAGL (setting [1]) and at human recombinant FAAH were 1 to 10 nM and 100 to 1000 nM, respectively.
As for `S=C(N1CCN(C(c2ccc3c(c2)COCO3)c2ccc3c(c2)COCO3)CC1)n1cncn1` [Example 21, (4-(bis(4H-benzo[d][1,3]dioxin-6-yl)methyl)piperazin-1-yl)(1H-1,2,4-triazol-1-yl)methanethione], the results for the IC50 at human recombinant MAGL (setting [1]) and at human recombinant FAAH were above 100 nM and above 50000 nM, respectively.
The corresponding values for `N#Cc1ccc2nnn(C(=O)N3CCCN(C(c4ccc5c(c4)COCO5)c4ccc5c(c4)COCO5)CC3)c2c1` [Example 51, 1-(4-(bis(4H-benzo[d][1,3]dioxin-6-yl)methyl)-1,4-diazepane-1-carbonyl)-1H-benzo[d][1,2,3]triazole-6-carbonitrile] are 10 to 100 nM and above 10000 nM.
Take `N#Cc1ccc2nnn(C(=O)N3CCC(N(c4ccc(F)cc4)c4ccc(F)cc4)CC3)c2c1` [Example 61, 1-(4-(bis(4-fluorophenyl)amino)piperidine-1-carbonyl)-1H-benzo[d][1,2,3]triazole-6-carbonitrile]: the figures for the half-inhibitory concentration (IC50) on human recombinant MAGL (setting [1]) and on human recombinant FAAH were 1 to 10 nM and 100 to 1000 nM, respectively.
For the compound `COc1cccc(C(c2cccc(OC)c2)N2CCN(C(=O)n3nnc4cc(C#N)ccc43)CC2)c1` [Example 96, 1-(4-(bis(3-methoxyphenyl)methyl)piperazine-1-carbonyl)-1H-benzo[d][1,2,3]triazole-5-carbonitrile], the half-inhibitory concentration (IC50) on human recombinant MAGL (setting [1]) is 1 to 10 nM; at human recombinant FAAH, 1000 to 10000 nM.
Consider “1-(4-((4-methoxyphenyl)(pyridin-3-yl)methyl)piperazine-1-carbonyl)-1H-benzo[d][1,2,3]triazole-6-carbonitrile and 1-(4-((4-methoxyphenyl)(pyridin-3-yl)methyl)piperazine-1-carbonyl)-1H-benzo[d][1,2,3]triazole-5-carbonitrile [Example 103]”, for which the figures for the IC50 on human recombinant MAGL (setting [1]) and at human recombinant FAAH were 1 to 10 nM and 1000 to 10000 nM, respectively.
On to `N#Cc1ncn(C(=O)N2CCC3(CC2)CN(C(c2ccc4c(c2)COCO4)c2ccc4c(c2)COCO4)C3)n1` [Example 83, 1-(2-(bis(4H-benzo[d][1,3]dioxin-6-yl)methyl)-2,7-diazaspiro[3.5]nonane-7-carbonyl)-1H-1,2,4-triazole-3-carbonitrile], for which the figures for the concentration for half-maximal inhibition (IC50) at human recombinant MAGL (setting [1]) and on human recombinant FAAH were 1 to 10 nM and 10000 to 50000 nM, respectively.
In the same order, the values of `N#Cc1ncn(C(=O)N2CC3(CCN(C(c4ccc5c(c4)COCO5)c4ccc5c(c4)COCO5)C3)C2)n1` [Example 84, 1-(6-(bis(4H-benzo[d][1,3]dioxin-6-yl)methyl)-2,6-diazaspiro[3.4]octane-2-carbonyl)-1H-1,2,4-triazole-3-carbonitrile] are 1 to 10 nM and 1000 to 10000 nM.
With `O=C(Oc1ccc([N+](=O)[O-])cc1[N+](=O)[O-])N1CCN(C(c2ccc3c(c2)COCO3)c2ccc3c(c2)COCO3)CC1` [Example 13, 2,4-dinitrophenyl 4-(bis(4H-benzo[d][1,3]dioxin-6-yl)methyl)piperazine-1-carboxylate], the 50% inhibitory concentration (IC50) on human recombinant MAGL (setting [1]) is above 100 nM; on human recombinant FAAH, above 10000 nM.
For the compound “1-(4-((2,3-dihydrobenzo[b][1,4]dioxin-6-yl)(4-methoxyphenyl)methyl)piperazine-1-carbonyl)-1H-benzo[d][1,2,3]triazole-6-carbonitrile and 1-(4-((2,3-dihydrobenzo[b][1,4]dioxin-6-yl)(4-methoxyphenyl)methyl)piperazine-1-carbonyl)-1H-benzo[d][1,2,3]triazole-5-carbonitrile [Example 106]”, the values for the IC50 on human recombinant MAGL (setting [1]) and on human recombinant FAAH were 1 to 10 nM and around 10000 nM, respectively.
Regarding `O=C(ON1C(=O)CCC1=O)N1CCN(C(c2ccc3c(c2)COCO3)c2ccc3c(c2)COCO3)CC1` [Example 6, 2,5-dioxopyrrolidin-1-yl 4-(bis(4H-benzo[d][1,3]dioxin-6-yl)methyl)piperazine-1-carboxylate], the IC50 at human recombinant MAGL (setting [1]) is above 100 nM; at human recombinant FAAH it was above 50000 nM.
For `N#Cc1ncn(C(=O)N2C3CCC2CC(C(c2ccc4c(c2)COCO4)c2ccc4c(c2)COCO4)C3)n1` (stereo not drawn) [Example 130, 1-(3-(bis(4H-benzo[d][1,3]dioxin-6-yl)methyl)-8-azabicyclo[3.2.1]octane-8-carbonyl)-1H-1,2,4-triazole-3-carbonitrile], the half-maximal inhibitory concentration (IC50) on human recombinant MAGL was 1 to 10 nM; on human recombinant FAAH it was above 50000 nM.
For the compound `O=C(N1CCN(C(c2ccc3c(c2)CCO3)c2ccc3c(c2)CCO3)CC1)n1nnc2ccccc21` [Example 108, (1H-benzo[d][1,2,3]triazol-1-yl)(4-(bis(2,3-dihydrobenzofuran-5-yl)methyl)piperazin-1-yl)methanone], the results for the IC50 at human recombinant MAGL (setting [1]) and at human recombinant FAAH were 1 to 10 nM and around 10000 nM, respectively.
